Data from patent publication US4174402A, “Method for the prophylaxis of SRS-A-induced symptoms” (priority 1978, dated 1979).
“And” between values parts separate entries of the source, which are not always exact repeats. Equal values may be shown once. “Also recorded” adds a separate entry of the source.

Assays:
SRS-A [1] = assay: Test Procedure 3: SRS-A-induced increase in resistance to pulmonary inflation in anesthetized cats; assay type: in vivo, cat
[2] = Oral toxicity, 5 weeks, Charles River CD albino rats; assay type: in vivo, rat
SRS-A [3] = assay: Test Procedure 3: SRS-A-induced increase in resistance to pulmonary inflation in anesthetized cats; assay type: in vivo, cat; remark: listed apart in the source
Experimental: The trachea of each cat was cannulated, and the cats were artificially respired at 15 strokes/minute with a stroke volume of 22 ml/kg. A side-arm of the intratracheal cannula was connected to a Statham transducer, and the intratracheal pressure was recorded continuously on a polygraph. One femoral vein was cannulated in all cats receiving intravenous administration of drugs. In addition, most of the cats were cannulated through the femoral artery; this cannula was attached to another Statham transducer, and the blood pressure of these cats recorded. All cats received 1.0 mg/kg of propranolol and 0.2 mg/kg of thenyldiamine intravenously 3 minutes before iv injection of SRS-A. SRS-A was obtained from rat peritoneal cavities as described previously in Test Procedure 1. Each pool of rat ip fluid containing SRS-A was dose-ranged and a dose selected that was estimated to cause an average increase in intrapulmonary resistance to inflation in control cats by 4-6 mmHg. Test dose volumes ranged from 1.0 to 2.0 ml/kg, iv. […] Both test compounds and the sodium hydroxide vehicle were injected iv 5 minutes before the injections of SRS-A (2 minutes before the injection of propranolol and thenyldiamine).

acetylcholine = assay: Test Procedure 7: acetylcholine-induced bronchoconstriction in anesthetized guinea pigs; assay type: in vivo, guinea pig; conditions: 100 mg/kg p.o.
Experimental: Guinea pigs, weighing 250-350 g were anesthetized with 1.5 g/kg i.p. of urethane and prepared for measurements of resistance to pulmonary inflation using a slightly modified Konzett-Rossler preparation (see Test Procedure 2). Histamine phosphate (5 μg/kg as base) was injected four times at 5 minute intervals in order to ascertain that the maximum bronchoconstrictor responsiveness has been obtained. Acetylcholine was injected intravenously at […] 5 minutes following the last injection of histamine and the increase in intratracheal pressure was recorded. Compound b or aminophylline (100 mg/kg p.o.) or the control vehicle were administered to five guinea pigs each, 1 hour before the injection of acetylcholine (1/2 hour before the anesthesia).

bradykinin = assay: animal or person; conditions: Cavia porcellus, iv, read-out: lowest dose that resulted in significant inhibition
Experimental: Antagonism of bradykinin-induced bronchoconstriction in guinea pigs was determined by measuring increases in resistance to artificial pulmonary inflation (Konzett-Rossler preparation). […] Due to large variations in bronchoconstricting responses among individual guinea pigs, each guinea pig serves as its own control and was challenged with bradykinin twice. The second response to bradykinin was expressed as percent of the first response to bradykinin. […] All guinea pigs having a first bradykinin response of less than 12 mm Hg were rejected as poor responders. […] In order to augment the bronchoconstrictor response, each guinea pig received 100 mcg propranolol/kg, iv, 5 minutes before the first injection of bradykinin (30 mcg/kg, iv). […] Five minutes after the injection of a test compound the guinea pigs received the second injection of bradykinin and the peak of the response determined. The effects of both test compounds were expressed as % inhibition of bradykinin-induced increase in bronchial resistance to forced inflation, as compared to the levels of bronchial resistance following iv administration of their respective solvent controls.

SRS-A [4] = assay: Test Procedure 4: competitive antagonism to SRS-A in anesthetized guinea pigs; assay type: in vivo, guinea pig
Excerpt: The intratracheal pressure (ITP) of anesthetized, artificially respired guinea pigs (Konzett-Rossler preparation) was monitored and peak increases in ITP recorded. The basic methodology was the same as that described hereinabove for Test Procedure 2 except that the basic experimental unit was not two guinea pigs (medicated and control) but three guinea pigs examined in an uninterrupted sequence: a control guinea pig receiving the standard dose of SRS-A, a medicated guinea pig receiving the standard dose of SRS-A and a medicated guinea pig receiving a multiple dose of SRS-A. In this manner, the ratios of peak responses of the same sample of SRS-A could be determined for medicated/control guinea pigs (standard procedure), and for medicated guinea pigs receiving the standard dose of SRS-A. The multiple dose of SRS-A in these studies was either 3× or 6× the standard dose.

[5] = Oral toxicity, 5 weeks, rhesus monkeys; assay type: in vivo, rhesus monkey
Experimental: The oral toxicity of compound b at doses of 5.0, 32.0, 75.0 and 200 mg/kg/day for 5 weeks was studied in rhesus monkeys.

histamine = assay: Test Procedure 5: histamine-induced bronchoconstriction in anesthetized guinea pigs; assay type: in vivo, guinea pig
Experimental: Guinea pigs weighing 350 to 400 g were anesthetized ip with 1.5 g/kg urethane and prepared for measurements of resistance to pulmonary inflation using a slightly modified Konzett-Rossler method (see Test Procedure 2). […] The experimental procedure was started after each guinea pig had attained its maximal, repeatable response to histamine. […] Artificial respiration was resumed 25 minutes later. Thirty minutes after the administration of one of the drugs, tne guinea pigs received two of three injections of histamine at 3-minute intervals. The average of these histamine responses (increases in resistance) was expressed as percent of the maximal histamine response obtained with the same guinea pig before the administration of the drug. In addition to sc administration, compound b was also studied following po administration. In these studies, the time interval between po medication and the secondary histamine challenges was increased to 45 minutes.

[6] = rat, in vivo, po, 640 mg/kg/day
[7] = rhesus monkey, in vivo, po, 200 mg/kg/day

COc1ccc2c(c1)c1c(n2C(=O)c2ccccc2)CCC(C(=O)O)C1 (centres unmarked) [Compound b, 9-benzoyl-6-methoxy-1,2,3,4-tetrahydrocarbazole-3-carboxylic acid]
% Inhibition (SRS-A [1]; intravenous 0.01 mg/kg): 30%
Max. Increase in Resistance to Pulm. Inflation, mm Hg ± S.E. (SRS-A [1]; intravenous 0.1 mg/kg): 1.6 ± 0.5 mm Hg
% Inhibition (SRS-A [1]; intravenous 1.0 mg/kg): 98%
increase in resistance in one of seven cats (SRS-A [1]; intravenous 1.0 mg/kg): 0.5 mm Hg
% Inhibition (SRS-A [1]; oral 0.33 mg/kg): 25%
Max. Increase in Resistance to Pulm. Inflation, mm Hg ± S.E. (SRS-A [1]; oral 0.33 mg/kg): 3.1 ± 0.3 mm Hg
% Inhibition (SRS-A [1]; oral 1.0 mg/kg): 49%
Max. Increase in Resistance to Pulm. Inflation, mm Hg ± S.E. (SRS-A [1]; oral 1.0 mg/kg): 2.0 ± 0.8 mm Hg
% Inhibition (SRS-A [1]; oral 3.3 mg/kg): 85%
Max. Increase in Resistance to Pulm. Inflation, mm Hg ± S.E. (SRS-A [1]; oral 3.3 mg/kg): 0.6 ± 0.5 mm Hg
% Inhibition (SRS-A [1]; oral 10.0 mg/kg): 98%
Max. Increase in Resistance to Pulm. Inflation, mm Hg ± S.E. (SRS-A [1]; oral 10.0 mg/kg): 0.1 ± 0.1 mm Hg
mortality ([2]; oral 1280 mg/kg/day): all rats died within 18 days
growth rate [2, 6]: slightly depressed
hematocrit [2, 6]: minimally lower than controls
hemoglobin concentration [2, 6]: minimally lower than controls
number of red blood cells [2, 6]: minimally lower than controls
tolerability ([2]; rat, in vivo, po, 1280 mg/kg/day): not well tolerated
ED50 (SRS-A [3]; Felis catus, 5 min, intravenous): 0.028 ± 0.024 mg/kg
Max. Increase in Resistance to Pulm. Inflation, mm Hg ± S.E. (SRS-A [3]; intravenous 0.01 mg/kg): 4.1 ± 1.3 mm Hg
% Inhibition (SRS-A [3]; intravenous 0.1 mg/kg): 73%
Max. Increase in Resistance to Pulm. Inflation, mm Hg ± S.E. (SRS-A [3]; intravenous 1.0 mg/kg): 0.1 ± 0.1 mm Hg
inhibition of SRS-A-induced increase in resistance to inflation (SRS-A [3]; intravenous 1.0 mg/kg): complete inhibition
% Inhibition (acetylcholine): 9%
Peak Increase in Intracheal Pressure, mm Hg (acetylcholine): 21 ± 4 mm Hg
effect against acetylcholine-induced bronchoconstriction (acetylcholine): inactive; also recorded: ineffectiveness
minimal effective dose (bradykinin): 1 mg/kg
Ratio of peak responses, medicated (high dose SRS-A)/controls (SRS-A [4]; 2.0 mg/kg iv, SRS-A lot B, 6x dose 12 ml/kg): 2.14 ± .68 and 2.14
Ratio of peak responses, medicated (low dose SRS-A)/controls (SRS-A [4]; 2.0 mg/kg iv, SRS-A lot B, standard dose 2 ml/kg): 0.14 ± 0.7 and 0.14
% Inhibition (SRS-A [4]; 2.0 mg/kg iv, six-fold SRS-A dose): 0%
% Inhibition (SRS-A [4]; 2.0 mg/kg iv, standard dose of SRS-A): 86%
Ratio of peak responses, medicated (high dose SRS-A)/controls (SRS-A [4]; 3.3 mg/kg iv, SRS-A lot A, 3x dose 12 ml/kg): 0.76 ± .20 and 0.76
Ratio of peak responses, medicated (low dose SRS-A)/controls (SRS-A [4]; 3.3 mg/kg iv, SRS-A lot A, standard dose 4 ml/kg): 0.12 ± 0.3 and 0.12
% Inhibition (SRS-A [4]; 3.3 mg/kg iv, standard dose of SRS-A): 88%
% Inhibition (SRS-A [4]; 3.3 mg/kg iv, three-fold SRS-A dose): 24%
mode of antagonism to SRS-A (SRS-A [4]; iv): competitive antagonist to SRS-A
mortality ([5]; oral 5.0, 32.0 and 75.0 mg/kg/day, 5 weeks): no mortality occurred
gross or microscopic histopathologic changes ([5]; rhesus monkey, in vivo): No gross or microscopic histophathologic changes were found
deaths attributed to medication [5, 7]: two deaths attributed to medication occurred
tolerability [5, 7]: not well tolerated
effect against histamine-induced bronchoconstriction (activity profile) (histamine; guinea pigs): ineffectiveness
inhibition of histamine-induced bronchoconstriction (histamine; oral 100 mg/kg): no significant inhibition
% Inhibition (histamine; po 100 mg/kg): 16%
Histamine-Response in % of Premed. Histamine Response (histamine; po 100 mg/kg): 84 ± 26%
% Inhibition (histamine; sc 100 mg/kg): 8%
Histamine-Response in % of Premed. Histamine Response (histamine; sc 100 mg/kg): 92 ± 2%
inhibition of histamine-induced bronchoconstriction (histamine; sc 100 mg/kg): no significant inhibition
